Converted amounts (≈) assume the structure as drawn.
Tests used:
HL-60 = assay: Cytotoxicity against human HL60 cells after 72 hrs by MTT assay; assay type: functional; conditions: HL-60, 72 h, read-out: ED50
P388 = assay: Cytotoxicity against mouse P388 cells after 72 hrs by MTT assay; assay type: functional; conditions: P388, 72 h, read-out: ED50

Structure (SMILES) | EC50 (HL-60) [µg/mL] | EC50 (P388) [µg/mL]
CC[C@H](C)[C@@H]1NC(=O)c2csc(n2)[C@@H](C(C)C)NC(=O)[C@H]2N=C(O[C@@H]2C)[C@H](c2ccccc2)NC(=O)c2csc(n2)[C@@H](C(C)C)NC(=O)[C@H]2N=C1O[C@@H]2C | 12.8 (≈ 16.5 µM) | 12.4 (≈ 16 µM)
CC[C@H](C)[C@@H]1NC(=O)c2csc(n2)[C@@H](C(C)C)NC(=O)[C@H]2N=C(O[C@@H]2C)[C@H]([C@@H](C)CC)NC(=O)c2csc(n2)[C@@H](C(C)C)NC(=O)[C@H]2N=C1O[C@@H]2C [ASCIDIACYCLAMIDE] | 33.5 (≈ 44.3 µM) | 10.5 (≈ 13.9 µM)

From ChEMBL document CHEMBL1777789, “The square conformation of phenylglycine-incorporated ascidiacyclamide is stabilized by CH/π interactions between amino acid side chains” (2011)
